Test results published in US20100130737A1, “Regulating Agent of GPR34 Receptor Function” (TAKEDA PHARMACEUTICAL COMPANY LIMITED, priority 2005, published 2010).

melting point	Compound
273 °C	O=C(NC(Cc1ccc(OCc2ccccc2F)cc1)C(=O)O)c1cn2cc(-c3ccc(Cl)cc3)ccc2n1 (stereo not drawn) [Example E6]
267 °C	O=C(NC(Cc1ccc(OCc2ccc(F)cc2)cc1)C(=O)O)c1cn2cc(-c3ccc(Cl)cc3)ccc2n1 (stereo not drawn) [Example E7]
255 °C	O=C(N[C@@H](Cc1ccc(OCc2ccccc2)cc1)C(=O)O)c1cn2ccc(-c3ccc(Cl)cc3)cc2n1 [Example E8, O-Benzyl-N-{[7-(4-chlorophenyl)imidazo[1,2-a]pyridin-2-yl]carbonyl}tyrosine]
252 °C	O=C(NC(Cc1ccc(OCc2cccc(F)c2)cc1)C(=O)O)c1cn2cc(-c3ccc(Cl)cc3)ccc2n1 (stereo not drawn) [Example E10]
266 °C	O=C(N[C@@H](Cc1ccc(F)cc1)C(=O)O)c1cn2cc(-c3ccc(Cl)cc3)ccc2n1 [Example E11, N-{[6-(4-Chlorophenyl)imidazo[1,2-a]pyridin-2-yl]carbonyl}-4-fluorophenylalanine]
206 °C	O=C(O)CN(Cc1ccc(OCc2ccc(F)cc2)cc1)C(=O)c1cn2cc(-c3ccc(Cl)cc3)ccc2n1 [Example E13, N-{[6-(4-Chlorophenyl)imidazo[1,2-a]pyridin-2-yl]carbonyl}-N-{4-[(4-fluorobenzyl)oxy]benzyl}glycine]
241 °C	O=C(NC(Cc1ccc(OCc2ccccc2)cc1)c1nnn[nH]1)c1cn2cc(-c3ccc(Cl)cc3)ccc2n1 (stereo not drawn) [Example E14, N-[2-[4-(Benzyloxy)phenyl]-1-(1H-tetrazol-5-yl)ethyl]-6-(4-chlorophenyl)imidazo[1,2-a]pyridine-2-carboxamide]
186 °C	O=C(NC(Cc1ccc(OCc2ccccc2)cc1)c1nnn[nH]1)c1cn2nc(-c3ccc(Cl)cc3)ccc2n1 (stereo not drawn) [Example E15, N-[2-[4-(Benzyloxy)phenyl]-1-(1H-tetrazol-5-yl)ethyl]-6-(4-chlorophenyl)imidazo[1,2-b]pyridazine-2-carboxamide]
276 °C	O=C(N[C@@H](Cc1ccc(OCC2CC2)cc1)C(=O)O)c1cn2cc(-c3ccc(Cl)cc3)ccc2n1 [Example E17, N-{[6-(4-Chlorophenyl)imidazo[1,2-a]pyridin-2-yl]carbonyl}-O-(cyclopropylmethyl)tyrosine]
244 °C	O=C(N[C@@H](Cc1ccc(OCc2ccccc2)cc1)C(=O)O)c1cn2cc(-c3cccnc3)ccc2n1 [Example E20, O-Benzyl-N-[(6-(pyridin-3-yl)imidazo[1,2-a]pyridine-2-yl)carbonyl]tyrosine]
268 °C	O=C(N[C@@H](Cc1ccc(OCc2ccccc2)cc1)C(=O)O)c1cn2cc(-c3ccncc3)ccc2n1 [Example E21, O-Benzyl-N-[(6-(pyridine-4-yl)imidazo[1,2-a]pyridin-2-yl)carbonyl]tyrosine]
167 °C	O=C(NC(Cc1ccc(OCc2ccccc2)cc1)c1noc(=O)[nH]1)c1cn2cc(-c3ccc(Cl)cc3)ccc2n1 (stereo not drawn) [Example E30, N-[2-[4-(Benzyloxy)phenyl]-1-(5-oxo-4,5-dihydro-1,2,4-oxadiazol-3-yl)ethyl]-6-(4-chlorophenyl)imidazo[1,2-a]pyridine-2-carboxamide]
262 °C	O=C(N[C@@H](Cc1ccc(OCc2ccoc2)cc1)C(=O)O)c1cn2cc(-c3ccc(Cl)cc3)ccc2n1 [Example E31, N-{[6-(4-Chlorophenyl)imidazo[1,2-a]pyridin-2-yl]carbonyl}-O-(3-furylmethyl)tyrosine]
220 °C	O=C(N[C@@H](Cc1ccc(OCc2ccoc2)cc1)C(=O)O)c1cn2nc(-c3ccc(Cl)cc3)ccc2n1 [Example E32, N-{[6-(4-Chlorophenyl)imidazo[1,2-b]pyridazin-2-yl]carbonyl}-O-(3-furylmethyl)tyrosine]
243 °C	O=C(N[C@@H](Cc1ccc(OCc2ccoc2)cc1)C(=O)O)c1cn2ccc(-c3ccc(Cl)cc3)cc2n1 [Example E33, N-{[7-(4-Chlorophenyl)imidazo[1,2-a]pyridin-2-yl]carbonyl}-O-(3-furylmethyl)tyrosine]
262 to 263 °C	O=C(N[C@@H](Cc1ccc(OCc2ccccc2)cc1)C(=O)O)c1cn2cc(/C=C/c3ccccc3)ccc2n1 [Example E34, O-Benzyl-N-({6-[(E)-2-phenylethenyl]imidazo[1,2-a]pyridin-2-yl}carbonyl)tyrosine]
248 to 249 °C	Cc1cc2nc(C(=O)N[C@@H](Cc3ccc(OCc4ccccc4)cc3)C(=O)O)cn2cc1-c1ccc(Cl)cc1 [Example E35, O-Benzyl-N-{[6-(4-chlorophenyl)-7-methylimidazo[1,2-a]pyridin-2-yl]carbonyl}tyrosine]

melting point	Compound
250 to 251 °C	Cc1cc2nc(C(=O)NC(Cc3ccc(OCc4ccccc4)cc3)C(=O)O)cn2c(C)c1-c1ccc(Cl)cc1 (stereo not drawn) [Example E36]
213 to 214 °C	O=C(O)CN(Cc1ccc(OCc2ccccc2)cc1)C(=O)c1cn2cc(-c3ccc(Cl)cc3)ccc2n1 [Example E39, N-[4-(Benzyloxy)benzyl]-N-{[6-(4-chlorophenyl)imidazo[1,2-a]pyridin-2-yl]carbonyl}glycine]
237 to 239 °C	O=C(N[C@@H](Cc1ccc(OCc2ccccc2)cc1)C(=O)O)c1cn2cc(-c3ccc(Cl)cc3Cl)ccc2n1 [Example E40, O-Benzyl-N-{[6-(2,4-dichlorophenyl)imidazo[1,2-a]pyridin-2-yl]carbonyl}tyrosine]
262 to 263 °C	COc1ccc(/C=C/c2ccc3nc(C(=O)N[C@@H](Cc4ccc(OCc5ccccc5)cc4)C(=O)O)cn3c2)cc1 [Example E43, O-Benzyl-N-({6-[(E)-2-(4-methoxyphenyl)ethenyl]imidazo[1,2-a]pyridin-2-yl}carbonyl)tyrosine]
270 to 271 °C	O=C(NC(Cc1ccc(OCc2ccccc2)cc1)C(=O)O)c1cn2cc(-c3ccc(OC(F)(F)F)cc3)ccc2n1 (stereo not drawn) [Example E44]
219 °C	COc1cc(F)c(-c2ccc3nc(C(=O)N[C@@H](Cc4ccc(OCc5ccccc5)cc4)C(=O)O)cn3c2)c(F)c1 [Example E46, O-Benzyl-N-{[6-(2,6-difluoro-4-methoxyphenyl)imidazo[1,2-a]pyridin-2-yl]carbonyl}tyrosine]
241 to 243 °C	O=C(N[C@@H](Cc1ccc(OCc2ccccc2)cc1)C(=O)O)c1ccc2nc(-c3ccc(Cl)cc3)c(Cl)n2c1 [Example E50, O-Benzyl-N-{[3-chloro-2-(4-chlorophenyl)imidazo[1,2-a]pyridin-6-yl]carbonyl}tyrosine]
186 °C	O=C(O)CN(Cc1ccc(OCc2ccccc2)cc1)C(=O)c1cn2ccc(-c3ccc(Cl)cc3)cc2n1 [Example E52, N-[4-(Benzyloxy)benzyl]-N-{[7-(4-chlorophenyl)imidazo[1,2-a]pyridin-2-yl]carbonyl}glycine]
187 °C	O=C(O)CN(Cc1ccc(OCc2ccsc2)cc1)C(=O)c1cn2ccc(-c3ccc(Cl)cc3)cc2n1 [Example E53]
244 to 245 °C	Cc1c(-c2ccc(Cl)cc2)nc2ccc(C(=O)N[C@@H](Cc3ccc(OCc4ccccc4)cc3)C(=O)O)cn12 [Example E55, O-Benzyl-N-{[2-(4-chlorophenyl)-3-methylimidazo[1,2-a]pyridin-6-yl]carbonyl}tyrosine]
248 to 249 °C	O=C(N[C@@H](Cc1ccc(OCc2ccccc2)cc1)C(=O)O)c1cn2ccc(-c3ccc(Cl)cc3)cc2n1 [Example E56, O-Benzyl-N-{[7-(4-chlorophenyl)imidazo[1,2-a]pyridin-2-yl]carbonyl}-L-tyrosine]
243 °C (dec.)	O=C(N[C@@H](Cc1ccc(OCc2ccccc2)cc1)C(=O)O)c1cn2ccc(C#Cc3ccccc3)cc2n1 [Example E58, O-Benzyl-N-{[7-(phenylethynyl)imidazo[1,2-a]pyridin-2-yl]carbonyl}tyrosine]
245 to 246 °C	Cc1cccc(COc2ccc(C[C@H](NC(=O)c3cn4ccc(-c5ccc(Cl)cc5)cc4n3)C(=O)O)cc2)c1 [Example E60, N-{[7-(4-Chlorophenyl)imidazo[1,2-a]pyridin-2-yl]carbonyl}-O-(3-methylbenzyl)tyrosine]
239 to 240 °C	COc1cccc(COc2ccc(C[C@H](NC(=O)c3cn4ccc(-c5ccc(Cl)cc5)cc4n3)C(=O)O)cc2)c1 [Example E61, N-{[7-(4-Chlorophenyl)imidazo[1,2-a]pyridin-2-yl]carbonyl)-O-(3-methoxybenzyl)tyrosine]
243 °C (dec.)	O=C(NC(Cc1ccc(OCc2ccc(F)cc2)cc1)C(=O)O)c1cn2ccc(C#Cc3ccccc3)cc2n1 (stereo not drawn) [Example E62]
263 °C	O=C(N[C@@H](Cc1ccc(OCc2ccc(C(F)(F)F)cc2)cc1)C(=O)O)c1cn2ccc(-c3ccc(Cl)cc3)cc2n1 [Example E66, N-{[7-(4-Chlorophenyl)imidazo[1,2-a]pyridin-2-yl]carbonyl}-O-[4-(trifluoromethyl)benzyl]tyrosine]
